Tested on: Spores of the fungus Mycosphearella sp
Assay: Spore germination test on amended water agar plates
Type: cell-based
Conditions: agar amended with mancozeb alone at 100 ppm; 4×10^5 spores; 12 hours incubation
Procedure: The flowable Calcium formulation (named Calciphite) combination plus Mancozeb as described in the above example was tested for its ability to inhibit spore germination as compared to Mancozeb. Water agar plates were prepared and amended with the Calciphite/mancozeb combination (50 ppm) or mancozeb alone (100 ppm). Spores of the fungus Mycosphearella sp at a spore concentration of 4×10^5 were sprayed onto the surface of the plates and incubated for 12 hours after which the plates were assessed for germination.

mancozeb
% spore germination: 81%

Reference: patent publication US7708799B2, “Dithiocarbamates and phosphite formulations” (priority 2005, dated 2010)
